{
  "source": "patent US7550469B2",
  "about": "“Heterocyclic amide derivatives and their use as dopamine D3 receptor ligands” (Aventis Pharmaceuticals Inc., priority 2001, dated 2009)",
  "key": {"[1]": {"system": "Alpha-1 adrenergic receptors from rat brain cortex", "assay": "[3H]Prazosin binding to alpha-1 adrenergic receptors from rat brain cortex (Protocol 4)", "conditions": "for r-α1 % Inh: r = rat, Inh @ 1 μM", "source_text": "[^3H]Prazosin Binding to Alpha-1 Adrenergic Receptors from Rat Brain Cortex\nObjective: This in vitro assay is designed as a screen to identify compounds displaying a affinity for the a, adrenoceptor subtype in membranes from rat cortex. It measures the ability of the test compounds to displace [^3H]prazosin from the α1 sites.\nMembrane Preparation: Rat brain tissue can be obtained from either fresh (male Wistar rats; 200-250 g) or frozen (male Sprague-Dawley 200-250 g from Harlan; cat. #BT-403) stocks. The cortex is dissected, homogenized in 50 vol (wet weight) ice-cold 50 mM Tris buffer (pH 7.7 at 25° C.). The homogenate is centrifuged at 48,000 g for 10 min, the pellet is resuspended in 50 mM Tris buffer and centrifuged a second time. The second pellet (P2) is resuspended to yield a concentration of 115 mg wet weight per 10 ml. […] Membranes should be mixed just before addition to ensure an even suspension. […] This is diluted to a 0.5 mM stock in dH2O. Serial dilutions in Buffer A are made from which 50 μl additions to the plate are made in duplicate in order to achieve the final concentrations desired. Typically, one 96 well plate is used to evaluate 11 compounds at 4 concentrations (10^−6-10^−9 M) in duplicate. Total binding and nonspecific binding are determined in quadruplicate. Usually one standard is run with each assay. • [^3H]Prazosin is made up in Buffer A such that when 50 μl are added per well the final concentration is […] in a final assay volume of 200 μl. The final concentration should be verified by running a sample in a scintillation counter prior to adding the [^3H]prazosin to the 96 well plate. Note: The radioactivity should be prepared just before the additions are made so that it is not allowed to sit on the bench for very long. • Packard GF/B Plate Pretreatment: The filter plates are presoaked for at least 30 min in ice cold Buffer B containing 0.05% polyethyleneimine (200 μl/200 ml) to maximize filtration efficiency and minimize filter blank binding. • Incubation & Filtration: Once buffer, compounds, [^3H]prazosin and membrane have been added (and mixed), the 96 well plates are incubated for 40 min at 37° C. and spaced 3-5 min apart. At 40 min, the plates are filtered using a Tomtec Automated Cell Harvester. Filtration is immediately followed by washes of ice cold Buffer B (total vol. ˜7 ml). • Drying and Counting: Each filter plate is dried under a heat lamp for 15 min. The back of the plate is sealed and 40 μl of Packard microscint fluid are added per well. Using Packard film, each plate is heat sealed prior to being counted in a Packard Topcount Scintillation counter. A program has been written that counts each plate twice sending DPM, CPM and TSIS data to disk and printer. • Analysis of Results: Raw DPM and CPM data are captured on disk and are imported into one of several software packages (Graphpad Prism Ver 2.0, Excel) residing on the LAN. Specific binding is defined as the difference between total binding and the binding in the presence of 10 μM phentolamine. Total binding is less than 10% of the total added ligand. Software using one-site competition curve analysis is employed in the calculation of IC50 and KI (Cheng-Prusoff equation, 1973). The top and bottom of the non-linear regression are held constant at 0% and 100% inhibition. The percent inhibition at each drug concentration is the mean of duplicate determinations."}, "[2]": {"target": "T1, human dopamine D3 receptor (Homo sapiens, UniProt P35462)", "T1 construct": "expressed in transfected cells; host or cells: CHO cells", "T1 sequence (P35462 whole entry)": "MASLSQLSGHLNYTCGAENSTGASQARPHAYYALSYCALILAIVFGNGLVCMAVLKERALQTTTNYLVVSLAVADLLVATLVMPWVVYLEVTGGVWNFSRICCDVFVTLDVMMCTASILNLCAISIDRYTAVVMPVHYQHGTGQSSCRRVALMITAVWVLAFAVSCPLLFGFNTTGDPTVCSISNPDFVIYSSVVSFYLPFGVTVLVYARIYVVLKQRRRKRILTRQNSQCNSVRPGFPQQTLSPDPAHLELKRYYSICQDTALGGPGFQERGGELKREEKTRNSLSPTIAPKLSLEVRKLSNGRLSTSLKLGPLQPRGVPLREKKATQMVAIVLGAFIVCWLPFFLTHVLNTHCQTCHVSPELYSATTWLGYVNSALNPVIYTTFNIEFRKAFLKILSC", "assay": "Microphysiometer test of functional activity in CHO cells expressing human dopamine D3 receptor (quinpirole-induced acidification rate)", "format": "cell-based", "conditions": "test compound 10 nM, 100 nM, 1 uM; quinpirole 10 nM", "experimental": "The functional activity of compounds of the invention (i.e. whether they are antagonists, agonists or partial agonists) can readily be determined using the microphysiometer test method that follows:\nChinese Hamster Ovary (CHO) cells, expressing the human dopamine D3 receptor, were grown on the surface of a capsule cup. Cups are assembled and placed on the microphysiometer, and buffer (Dulbecco's Modified Eagle's Medium without sodium bicarbonate and without serum) is perfused through the cup assembly until a stable baseline is achieved (4 hours). Buffer perfusion rate and solution changes are controlled by a computer. Intracellular acidification rate is measured in each of the 8 cup assemblies and recorded by the computer. Buffer containing test compound (10 nM, 100 nM, and 1 uM) is perfused through the cup assembly for 20 min. Buffer containing quinpirole (10 nM) (a D3 agonist) and test compound (same concentrations) is perfused for an additional 1 min. This is followed by a recovery period of 10-60 min where buffer alone was perfused through the cups. Quinpirole increases the rate of acidification. If the test compound is a D3 antagonist, this increase will be inhibited in a concentration dependent manner."}},
  "data": [
    {"smiles": "CC(C)(C)c1ccc(C(=O)NCCCCN2CCCN(c3csc4cc(F)ccc34)CC2)cc1", "note": "[compound 822198]", "values": [
      {"measurement": "r-α1 % Inh", "setting": "[1]", "value": 0, "unit": "%"}
    ]},
    {"smiles": "O=C(NCCCCN1CCN(c2csc3cc(C(F)(F)F)ccc23)CC1)c1cc2ccccc2s1", "note": "[814238A]", "values": [
      {"measurement": "rat alpha 1 % I", "setting": "[1]; @ 10 uM", "value": 50, "unit": "% @ 10 uM"}
    ]},
    {"smiles": "O=C(NCCCCN1CCCN(c2csc3cc(F)ccc23)CC1)c1ccc(OC(F)(F)F)cc1", "note": "[compound 822152]", "values": [
      {"measurement": "r-α1 % Inh", "setting": "[1]", "value": 14, "unit": "%"}
    ]},
    {"smiles": "O=C(NCCCCN1CCCN(c2csc3cc(F)ccc23)CC1)c1cccc(F)c1", "note": "[compound 822154]", "values": [
      {"measurement": "r-α1 % Inh", "setting": "[1]", "value": 0, "unit": "%"}
    ]},
    {"smiles": "CCOc1ccc(C(=O)NCCCCN2CCN(c3csc4cc(C(F)(F)F)ccc34)CC2)cc1", "note": "[compound 815541]", "values": [
      {"measurement": "functional activity at D3 (inhibition of quinpirole-induced increase of acidification rate)", "setting": "[2]", "value": "D3 antagonists"}
    ]},
    {"smiles": "COc1ccccc1C(=O)NCCCCN1CCCN(c2csc3cc(F)ccc23)CC1", "note": "[compound 822157]", "values": [
      {"measurement": "r-α1 % Inh", "setting": "[1]", "value": 41, "unit": "%"}
    ]}
  ]
}
